The subject of one series is IgA. Nature of the series: IgA measurement in cecal contents (Rat IgA ELISA Kit). In kind it is in vivo, SD rats. The settings on record: 5.5% in NF diet, 8 weeks; for IgA amount of cecal contents: compared to the NF group (p<0.01), FIG. 2. The method, then:
(§1) Fifteen 3-week-old SD rats (Japan SLC, Inc.) were acclimatized to the facility for one week and then divided into three groups of NF group (No Fiber diet), α-CD group (5.5% α-CD-containing NF diet) and LS group (5.5% LS-containing NF diet), each including five rats, and each rat was kept in one cage. In this test, the experiment was conducted in accordance with the Guidelines for Animal Experimentation of Kobe Women's University (Kobe, Japan), and approved by the animal ethics committee of the Graduate School of Science of Health and Nutrition at Kobe Women's University. The breeding environment was at 23±3° C. with a humidity of 60±10%, and cycles of 12-hour light/12-hour dark were provided. The rats were allowed to freely take diets and water and bread for eight weeks with experimental diets.
(§2) The diets were prepared in such a manner that the α-CD or LS content of dry experimental diet became 5.5%. After mixing each powder well, 100 ml of water was added, and thus mixed material was used as an experimental diet.
(§3) The rats of each group were fasted overnight eight weeks after starting breeding and then dissected under isoflurane anesthesia, and the cecum were taken out.
One hundred milligrams of cecal contents were measured and stirred after adding 1 ml of Elix water. After stirring, the resultant was centrifuged under the conditions of 10000 rpm for 30 min at 4° C., and the supernatant was used as a sample for IgA measurement. IgA amount of each sample was measured using Rat IgA ELISA Kit (Bethyl Laboratories, Inc.). Statistical analysis was conducted in the same manner as in 1) above.

The test system of series [1] is Caco-2 cells. Nature of the series: Cytotoxicity of food emulsifiers alone (LDH activity). In kind it is cell-based, human. As to the method: (§4) Caco-2 cells were inoculated to a 96-well plate at 10000 cells/well and cultured for three days to confluency. The Caco-2 cells were washed with PBS and then treated with a food emulsifier SE (250 μg/mL HLB16P, 1000 μg/mL HLB11S or 500 μg/mL […]) or monolaurin (500 μg/mL) and α-CD for an hour, and the LDH activities of each were measured. The treatment amounts of α-CD were 1/10, 1, 1.5, 2, 5 and 10 times the weight ratios for each SE. For monolaurin, the treatment amounts of α-CD were 1/10, 1, 1.5, 2, 5, 10 and 15 times the weight ratios.
For comparison, the LDH activities of Caco-2 cells which were treated with the SE (HLB16P (0-1000 μg/mL), HLB11S or HLB16S (each 0-2000 μg/mL)) or monolaurin (0-2500 μg/mL) alone for an hour were also measured.

For series [2], the system named is cecal microflora (Lactobacillales). In words: Analysis of cecal microflora by the T-RFLP method. The series is classed as in vivo, SD rats. To be noted: 5.5% in NF diet, 8 weeks; compared to the NF group or the LS group. As to the method: as §1, with “diets. […]” for “diets.”
(§5) A cut was made in the cecum taken out in 1 above, and the contents were squeezed out. The weights of the cecal contents were measured. […]
(§6) The cecal contents which were thawed for the microflora analysis were mixed and homogenized, and the analysis of the microflora by the T-RFLP method, measurement of the SCFAs amounts and the pH analysis were entrusted (TechnoSuruga Laboratory Co., Ltd.). The total SCFAs amounts were calculated by adding up the amounts of lactic acid, succinic acid, acetic acid, propionic acid and butyric acid.

Series [3] is described as follows: Measurement of SCFAs amounts in cecal contents. The series is classed as in vivo, SD rats. To be noted: 5.5% in NF diet, 8 weeks. The method, then:
as §1, §2, §3
A cut was made in the cecum taken out in 1 above, and the contents were squeezed out. The weights of the cecal contents were measured. Immediately after the weight measurement, the contents were frozen with liquid nitrogen and stored at −80° C.
as §6

Series [4] in a line: pH analysis of cecal contents. The series is classed as in vivo, SD rats. The settings on record: 5.5% in NF diet, 8 weeks. As to the method: as §1, with “diets. […]” for “diets.”
as §5, §6

The next series relates to mucin. Nature of the series: Mucin measurement in cecal contents (Fecal mucin Assay Kit). The series is classed as in vivo, SD rats. To be noted: 5.5% in NF diet, 8 weeks, FIG. 1. The method, then:
as §1
The diets were prepared in such a manner that the α-CD or LS content of dry experimental diet became 5.5%. After mixing each powder well, 100 ml of water was added, and thus mixed material was used as an experimental diet. […]
The mucin amounts of the cecal contents were measured using Fecal mucin Assay Kit (Cosmo Bio Co., Ltd.), statistically analyzed by the Dunnett's test and the Student's t-test using Pharmaco Analyst I (Ver. 13.1.1; Three S Japan) and shown with the average values ±standard errors.

The test system of series [5] is putrefactive products (indole, p-cresol and phenol). In words: Putrefactive product measurement in cecal contents. In kind it is in vivo, SD rats. To be noted: 5.5% in NF diet, 8 weeks. As to the method: as §1, §2, §3
Analysis of the amounts of putrefactive products (indole, p-cresol and phenol) in cecal contents was entrusted (TechnoSuruga Laboratory Co., Ltd.).

The next series in a line: Feces amount measurement. In kind it is in vivo, SD rats. The settings on record: 5.5% in NF diet, feces of three days from the 45th day. As to the method: as §1, §2
A drainboard was placed on the floor of each breeding cage 44 days after starting the test, and the feces that fell under the drainboard were collected every day for three days in succession after the 45th day. The weight (wet weight) of the collected feces (for the three days) was measured, and then after drying under reduced pressure, the feces weight after drying (dry weight) was measured.

The subject of series [6] is Caco-2 cells. Nature of the series: Effect on cytotoxicity of food emulsifiers (LDH activity). In kind it is cell-based, human. To be noted: one hour. The method, then: as §4
In series [7] the test system is Caco-2 cells. Nature of the series: Transepithelial electrical resistance decrease by food emulsifier. The series is classed as cell-based, human. The settings on record: HLB16P 62.5 μg/mL and α-CD 0-2000 μg/mL, 120 minutes, FIG. 7A. As to the method: Caco-2 cells were seeded to a Transwell insert at 0.4×10^6 cells/mL using Corning (registered trademark) BioCoat (trademark) intestinal epithelial cells (Caco-2) differentiation environment kit (Corning International K.K.), cultured for one day in a normal medium and cultured for three days in a differentiation medium. The Caco-2 cells were washed with PBS, then treated with HLB16P (62.5 μg/mL) and α-CD (0-2000 μg/mL) and incubated for 120 minutes. During the incubation, the transepithelial electrical resistance values were measured every 20 minutes by Millicell ERS-2 resistance measurement system (Nihon Millipore K.K.).
In the same manner, the transepithelial electrical resistance values were measured after treatment with HLB16P (62.5 μg/mL) and α-CD (2000 μg/mL), each water-soluble dietary fiber or oligosaccharide (2000 μg/mL).

[8] abbreviates: compared to the LS group (p<0.01, Student's t-test).
[9] abbreviates: compared to the LS group (p<0.05).
[10] abbreviates: HLB11S 1000 μg/mL, weight ratio, FIG. 5B.
Setting [11] is: HLB16P 250 μg/mL, weight ratio, FIG. 5A.
[12] abbreviates: HLB16S 500 μg/mL, weight ratio, FIG. 5C.

SMILES strings stand for the structures.

As for `OC[C@H]1O[C@@H](O[C@H]2[C@H](O)[C@@H](O)[C@@H](O[C@]3(CO)O[C@H](CO)[C@@H](O)[C@@H]3O)O[C@@H]2CO)[C@H](O)[C@@H](O)[C@H]1O` [LS, Lactosucrose, reference compound], the “IgA amount of cecal contents” value in the series on IgA is on record as “increased significantly”.

Regarding `CCCCCCCCCCCC(=O)OCC(O)CO` (stereo not shown) [monolaurin, Monolaurin], in the series on Caco-2 cells [1], the “concentration at which cytotoxicity to the Caco-2 cells was observed” value is at least 156.25 µg/mL and the “concentration at which cytotoxicity to the Caco-2 cells was very high” value was at least 625 µg/mL.

Turning to `OC[C@H]1O[C@@H]2O[C@H]3[C@H](O)[C@@H](O)[C@@H](O[C@H]4[C@H](O)[C@@H](O)[C@@H](O[C@H]5[C@H](O)[C@@H](O)[C@@H](O[C@H]6[C@H](O)[C@@H](O)[C@@H](O[C@H]7[C@H](O)[C@@H](O)[C@@H](O[C@H]1[C@H](O)[C@H]2O)O[C@@H]7CO)O[C@@H]6CO)O[C@@H]5CO)O[C@@H]4CO)O[C@@H]3CO` [α-CD], the “proportion of the Lactobacillales in cecal microflora” value in [2] is given as “increased”. In [3] (compared to the LS group), the “increase in amount of acetic acid” value is given as “remarkable”, the “increase in amount of lactic acid” value is “remarkable”, the “increase in amount of n-butyric acid” value is reported as “remarkable” and the “increase in amount of propionic acid” value is recorded as “remarkable”. In [3] (compared to the LS group), the “increase in amount of succinic acid” value was “remarkable” and the “increase in total SCFAs amount” value is “remarkable”. In addition, in [3] (compared to the NF group), the “amount of acetic acid in cecal contents” value is listed as “increased significantly”, the “amount of lactic acid in cecal contents” value is “increased significantly”, the “amount of n-butyric acid in cecal contents” value is given as “increased significantly” and the “amount of propionic acid in cecal contents” value is given as “increased significantly”. Moreover, in series [3] (compared to the NF group), the “amount of succinic acid in cecal contents” value is given as “increased significantly” and the “total SCFAs amount in cecal contents” value is “increased significantly”. The “decrease in the cecal pH” value in series [4] (compared to the LS group) was “remarkable”. In addition, in series [4] (compared to the NF group), the “cecal pH” value is “decreased significantly”. The “mucin amount of cecal contents” value with mucin (setting [8]) is “increased significantly”. Moreover, the “mucin amount of cecal contents” value in the series with mucin (compared to the NF group (p<0.01)) was “increased significantly”. Moreover, the “IgA amount of cecal contents” value in the series on IgA is “increased significantly”. The IgA-increasing effect entry with IgA (α-CD group vs LS group, Student's t-test) is reported as “comparable to that of LS”. For the same compound, in series [5] (setting [8]), the “production of the putrefactive products” value was “suppressed significantly”. Further, the “amounts of the putrefactive products (indole, p-cresol and phenol) in cecal contents” value in [5] (compared to the NF group (p<0.01), FIG. 3) is recorded as “decreased significantly”. In the series “Feces amount measurement” (setting [9]), the “feces amount, dry weight” value is recorded as “increased significantly” and the “feces amount, wet weight” value is given as “increased significantly”. The “feces amount, wet weight” value in the series “Feces amount measurement” (compared to the NF group (p<0.01), FIG. 4A) is “increased significantly”. Moreover, the “feces amount, dry weight” value in the series “Feces amount measurement” (compared to the NF group (p<0.01), FIG. 4B) is on record as “increased significantly”. Besides, the “suppression of the cytotoxicity of the food emulsifier” value in the series on Caco-2 cells [6] (1000 μg/mL HLB11S and 1000 μg/mL test substance, LDH activity, FIG. 6) is on record as “exhibits such an effect”. Besides, in the series on Caco-2 cells [6] (setting [10]), the “amount of α-CD with which cytotoxicity of HLB11S disappeared completely” value came to 10 times the amount and the “amount of α-CD with which cytotoxicity of HLB11S was reduced significantly” value is at least 0.1 times the amount. In the series with Caco-2 cells [6] (setting [11]), the “amount of α-CD with which cytotoxicity of HLB16P disappeared completely” value is reported as 10 times the amount and the “amount of α-CD with which cytotoxicity of HLB16P was reduced significantly” value was at least 1.5 times the amount. In the series with Caco-2 cells [6] (setting [12]), the “amount of α-CD with which cytotoxicity of HLB16S disappeared completely” value is reported as 5 times the amount and the “amount of α-CD with which cytotoxicity of HLB16S was reduced significantly” value is at least 1.5 times the amount. Besides, the “amount of α-CD with which cytotoxicity of monolaurin disappeared completely” value in the series with Caco-2 cells [6] (monolaurin 500 μg/mL, weight ratio, FIG. 5D) is at least 10 times the amount. Besides, the “suppression of the decrease in transepithelial electrical resistance value by the SE” value in the series with Caco-2 cells [7] was “suppressed by the addition of α-CD in a concentration-dependent manner”.
